Source: patent publication US11591326B2, “Inhibitors of protein arginine methyltransferase 5 (PRMT5), pharmaceutical products thereof, and methods thereof” (PHARMABLOCK SCIENCES (NANJING), INC., priority 2018, dated 2023)

These molecules were tested against Human recombinant PRMT5 in complex with human recombinant MEP50 (Homo sapiens (Human), UniProt O14744) (assay: PRMT5/MEP50 AlphaLISA enzyme inhibitory assay). Details: PRMT5/MEP50 25 nM, SAM 10 μM, Biotin-H4 peptide 30 nM.
Format: biochemical
Description: Human recombinant PRMT5 in complex with human recombinant MEP50, co-expressed in an insect cell/baculovirus expression system was purchased from Reaction Biology (Malvern, Pa.). […] Anti-H4R3-Me AlphaLISA acceptor beads and Streptavidin labeled AlphaLISA donor beads were obtained from PerkinElmer (Waltham, Mass.). S-adenosylmethionine (SAM), Tween20, dimethylsulfoxide (DMSO), and Tris buffer were obtained from Sigma at the highest level of purity available.
General Procedure for PRMT5/MEP50 AlphaLISA Enzyme Inhibitory Assays: Assays were performed in the buffer consisting of 50 mM Tris, pH 8.5, 5 mM MgCl2, 50 mM NaCl with 0.01% Tween20 and 1 mM DTT added right before the assay. 2.5 μL of compound solution in the assay buffer with 4% DMSO and 5 μL of PRMT5/MRP50 complex/SAM mixture solution in the assay buffer which was pre-incubated for 30 minutes were added into a white low volume 384 well microtiter plate. This mixture solution was incubated for 15 minutes with gentle shaking at room temperature. Methyl transfer reaction was initiated by adding 2.5 μL of Biotin-H4 (1-21) peptide substrate solution in the assay buffer. Final concentrations of PRMT5/MEP50, SAM, Biotin-H4 peptide substrate, and DMSO were 25 nM, 10 μM, 30 nM, and 1%, respectively. The reaction was allowed to perform for 120 minutes in dark with gentle shaking at room temperature after which 5 μL of Anti-H4R3-Me AlphaLISA acceptor beads in detection buffer from the manufacturer was added into the reaction mixture followed by incubation for 60 minutes. 10 μL of Streptavidin labeled AlphaLISA donor beads in detection buffer was added into the mixture followed by 30 minute incubation. Final acceptor and donor beads concentrations were 10 μg/mL. Plates were read on an Envision multimode plate reader from PerkinElmer (Waltham Mass., USA) with an excitation wavelength of 680 nm and emission wavelength of 615 nm. IC50 values of inhibitors were obtained by fitting the fluorescence intensity vs inhibitor concentrations in a sigmoidal dose-response curve (variable slopes, four parameters) using Prism 7 (La Jolla, Calif.).

Chain of Human recombinant PRMT5 in complex with human recombinant MEP50 (O14744 whole entry): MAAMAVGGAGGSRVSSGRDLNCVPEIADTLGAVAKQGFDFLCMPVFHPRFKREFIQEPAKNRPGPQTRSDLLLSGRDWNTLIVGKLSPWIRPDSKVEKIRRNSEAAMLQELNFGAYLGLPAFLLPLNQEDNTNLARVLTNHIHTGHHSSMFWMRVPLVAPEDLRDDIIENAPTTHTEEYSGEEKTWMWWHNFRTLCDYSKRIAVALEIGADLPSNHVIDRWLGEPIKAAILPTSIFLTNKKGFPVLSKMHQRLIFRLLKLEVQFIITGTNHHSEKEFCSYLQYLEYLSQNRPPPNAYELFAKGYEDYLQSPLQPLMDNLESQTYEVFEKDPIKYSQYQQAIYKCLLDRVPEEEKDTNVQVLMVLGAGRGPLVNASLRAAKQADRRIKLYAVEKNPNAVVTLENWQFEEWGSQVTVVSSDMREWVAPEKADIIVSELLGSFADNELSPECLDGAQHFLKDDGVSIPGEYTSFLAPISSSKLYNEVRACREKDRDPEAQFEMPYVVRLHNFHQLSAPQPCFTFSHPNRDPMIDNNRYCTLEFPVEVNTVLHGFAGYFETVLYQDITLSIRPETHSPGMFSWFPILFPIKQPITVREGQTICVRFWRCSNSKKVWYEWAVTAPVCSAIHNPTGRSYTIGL
Chain of Human recombinant PRMT5 in complex with human recombinant MEP50 (Q9BQA1 whole entry partner): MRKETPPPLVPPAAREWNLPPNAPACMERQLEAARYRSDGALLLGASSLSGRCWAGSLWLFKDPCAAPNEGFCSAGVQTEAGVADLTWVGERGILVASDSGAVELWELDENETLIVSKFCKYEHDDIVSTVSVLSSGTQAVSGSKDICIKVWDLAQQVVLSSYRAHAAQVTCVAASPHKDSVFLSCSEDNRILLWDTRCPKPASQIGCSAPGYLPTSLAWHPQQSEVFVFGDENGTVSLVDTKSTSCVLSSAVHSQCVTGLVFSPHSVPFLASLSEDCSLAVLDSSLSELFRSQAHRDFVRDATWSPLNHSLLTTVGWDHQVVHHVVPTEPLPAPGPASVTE

| SMILES | IC50 |
| --- | --- |
| O=c1c2cc(Nc3ccnnc3)ccc2ccn1CC(O)CN1CCc2ccccc2C1 (stereo not drawn) [Compound 32, 2-(3-(3,4-dihydroisoquinolin-2(1H)-yl)-2-hydroxypropyl)-7-(pyridazin-4-ylamino)isoquinolin-1(2H)-one] | 37.2 nM |
| Cn1cc(-c2ccc3c(c2)C(=O)N(C[C@@H](O)CN2CCc4ccccc4C2)CC3)cn1 [Compound 13, (S)-2-(3-(3,4-dihydroisoquinolin-2(1H)-yl)-2-hydroxypropyl)-7-(1-methyl-1H-pyrazol-4-yl)-3,4-dihydroisoquinolin-1(2H)-one] | 578 nM |
| CN1C(=O)CN(CC(O)CN2CCc3ccccc3C2)C(=O)c2cc(Nc3ccnnc3)ccc21 (stereo not drawn) [Compound 44, 4-(3-(3,4-dihydroisoquinolin-2(1H)-yl)-2-hydroxypropyl)-1-methyl-7-(pyridazin-4-ylamino)-3,4-dihydro-1H-benzo[e][1,4]diazepine-2,5-dione] | 6.9 nM |
| CC1(C)CN(CC(O)CN2CCc3ccccc3C2)C(=O)c2cc(Nc3ccnnc3)ccc21 (stereo not drawn) [Compound 34, 2-(3-(3,4-dihydroisoquinolin-2(1H)-yl)-2-hydroxypropyl)-4,4-dimethyl-7-(pyridazin-4-ylamino)-3,4-dihydroisoquinolin-1(2H)-one] | 15.7 nM |
| O=c1c2cc(NC3COC3)ccc2ncn1CC(O)CN1CCc2ccccc2C1 (stereo not drawn) [Compound 3, 3-(3-(3,4-dihydroisoquinolin-2(1H)-yl)-2-hydroxypropyl)-6-(oxetan-3-ylamino)quinazolin-4(3H)-one] | 568 nM |
| O=C1c2cc(NC3COC3)cnc2CCN1CC(O)CN1CCc2ccccc2C1 (stereo not drawn) [Compound 16, 6-(3-(3,4-dihydroisoquinolin-2(1H)-yl)-2-hydroxypropyl)-3-(oxetan-3-ylamino)-7,8-dihydro-1,6-naphthyridin-5(6H)-one] | 447 nM |
| O=C1c2cc(Nc3ccnnc3)ccc2CCN1CC(O)CN1CCc2ccccc2C1 (stereo not drawn) [Compound 28] | 11.4 nM |
| CC1(C)CN(CC(O)CN2CCc3ccccc3C2)C(=O)c2cc(NC3COC3)ccc21 (stereo not drawn) [Compound 15, 2-(3-(3,4-dihydroisoquinolin-2(1H)-yl)-2-hydroxypropyl)-4,4-dimethyl-7-(oxetan-3-ylamino)-3,4-dihydroisoquinolin-1(2H)-one] | 217 nM |
| Cn1ccc(Nc2ccc3c(c2)C(=O)N(CC(O)CN2CCc4ccccc4C2)CC3)cc1=O (stereo not drawn) [Compound 27, 2-(3-(3,4-dihydroisoquinolin-2(1H)-yl)-2-hydroxypropyl)-7-((1-methyl-2-oxo-1,2-dihydropyridin-4-yl)amino)-3,4-dihydroisoquinolin-1(2H)-one] | 21 nM |
| O=C1c2nc(Nc3ccnnc3)ccc2OCCN1CC(O)CN1CCc2ccccc2C1 (stereo not drawn) [Compound 49, 4-(3-(3,4-dihydroisoquinolin-2(1H)-yl)-2-hydroxypropyl)-7-(pyridazin-4-ylamino)-3,4-dihydropyrido[2,3-f][1,4]oxazepin-5(2H)-one] | 690 nM |
| CN1CCN(CC(O)CN2CCc3ccccc3C2)C(=O)c2cc(Nc3ccnnc3)ccc21 (stereo not drawn) [Compound 45, 4-(3-(3,4-dihydroisoquinolin-2(1H)-yl)-2-hydroxypropyl)-1-methyl-7-(pyridazin-4-ylamino)-1,2,3,4-tetrahydro-5H-benzo[e][1,4]diazepin-5-one] | 9.6 nM |
| CN1CC(Nc2ccc3c(c2)C(=O)N(C[C@@H](O)CN2CCc4ccccc4C2)CC3)C1 [Compound 9, (S)-2-(3-(3,4-dihydroisoquinolin-2(1H)-yl)-2-hydroxypropyl)-7-((1-methylazetidin-3-yl)amino)-3,4-dihydroisoquinolin-1(2H)-one] | 2440 nM |
| CS(=O)(=O)N1CC(Nc2ccc3c(c2)C(=O)N(C[C@@H](O)CN2CCc4ccccc4C2)CC3)C1 [Compound 8, (S)-2-(3-(3,4-dihydroisoquinolin-2(1H)-yl)-2-hydroxypropyl)-7-((1-(methylsulfonyl)azetidin-3-yl)amino)-3,4-dihydroisoquinolin-1(2H)-one] | 232 nM |

Continued, values first:

| IC50 | SMILES |
| --- | --- |
| 12.2 nM | Cn1ccc(Nc2ccc3c(c2)C(=O)N(C[C@H](O)CN2CCc4ccccc4C2)CCO3)cc1=O [Compound 40, (R)-4-(3-(3,4-dihydroisoquinolin-2(1H)-yl)-2-hydroxypropyl)-7-((1-methyl-2-oxo-1,2-dihydropyridin-4-yl)amino)-3,4-dihydrobenzo[f][1,4]oxazepin-5(2H)-one] |
| 131 nM | O=C1c2cc(NC3COC3)ccc2OCCN1CC(O)CN1CCc2ccccc2C1 (stereo not drawn) [Compound 5, 4-(3-(3,4-dihydroisoquinolin-2(1H)-yl)-2-hydroxypropyl)-7-(oxetan-3-ylamino)-3,4-dihydrobenzo[f][1,4]oxazepin-5(2H)-one] |
| 209 nM | CC(=O)N1CCC(Nc2ccc3c(c2)C(=O)N(C[C@@H](O)CN2CCc4ccccc4C2)C2CC3C2)CC1 [Compound 57b, (S)-8-((1-acetylpiperidin-4-yl)amino)-2-(3-(3,4-dihydroisoquinolin-2(1H)-yl)-2-hydroxypropyl)-2,3,4,5-tetrahydro-1H-3,5-methanobenzo[c]azepin-1-one] |
| 462 nM | O=C1c2cc(N[C@@H]3CCOC3)ccc2CCN1C[C@@H](O)CN1CCc2ccccc2C1 [Compound 11, 2-((S)-3-(3,4-dihydroisoquinolin-2(1H)-yl)-2-hydroxypropyl)-7-(((R)-tetrahydrofuran-3-yl)amino)-3,4-dihydroisoquinolin-1(2H)-one] |
| 51.7 nM | CN1CC(Nc2ccc3c(c2)C(=O)N(C[C@H](O)CN2CCc4ccccc4C2)CCO3)CC1=O (stereo partly drawn) [Compound 43, 4-((R)-3-(3,4-dihydroisoquinolin-2(1H)-yl)-2-hydroxypropyl)-7-((1-methyl-5-oxopyrrolidin-3-yl)amino)-3,4-dihydrobenzo[f][1,4]oxazepin-5(2H)-one] |
| 722 nM | CC(=O)N1CCC(Nc2cc3c(cc2F)OCCN(C[C@@H](O)CN2CCc4ccccc4C2)C3=O)CC1 [Compound 17b, (S)-7-((1-acetylpiperidin-4-yl)amino)-4-(3-(3,4-dihydroisoquinolin-2(1H)-yl)-2-hydroxypropyl)-8-fluoro-3,4-dihydrobenzo[f][1,4]oxazepin-5(2H)-one] |
| 1010 nM | O=C1c2cc(N[C@H]3CCOC3)ccc2CCN1C[C@@H](O)CN1CCc2ccccc2C1 [Compound 10, 2-((S)-3-(3,4-dihydroisoquinolin-2(1H)-yl)-2-hydroxypropyl)-7-(((S)-tetrahydrofuran-3-yl)amino)-3,4-dihydroisoquinolin-1(2H)-one] |
| 20.2 nM | Cc1nnc(Nc2ccc3c(c2)C(=O)N(C[C@H](O)CN2CCc4ccccc4C2)CCO3)o1 [Compound 42, (R)-4-(3-(3,4-dihydroisoquinolin-2(1H)-yl)-2-hydroxypropyl)-7-((5-methyl-1,3,4-oxadiazol-2-yl)amino)-3,4-dihydrobenzo[f][1,4]oxazepin-5(2H)-one] |
| 126 nM | Cn1cc(Nc2ccc3c(c2)C(=O)N(C[C@@H](O)CN2CCc4ccccc4C2)CCO3)cn1 [Compound 29b, (S)-4-(3-(3,4-dihydroisoquinolin-2(1H)-yl)-2-hydroxypropyl)-7-((1-methyl-1H-pyrazol-4-yl)amino)-3,4-dihydrobenzo[f][1,4]oxazepin-5(2H)-one] |
| 92.5 nM | CC(=O)N1CCC(Nc2ccc3c(c2)C(=O)N(C[C@H](O)CN2CCc4ccccc4C2)C2CC3C2)CC1 [Compound 57a, (R)-8-((1-acetylpiperidin-4-yl)amino)-2-(3-(3,4-dihydroisoquinolin-2(1H)-yl)-2-hydroxypropyl)-2,3,4,5-tetrahydro-1H-3,5-methanobenzo[c]azepin-1-one] |
| 15.8 nM | O=C1c2cc(Nc3ccnnc3)ncc2OCCN1CC(O)CN1CCc2ccccc2C1 (stereo not drawn) [Compound 48, 4-(3-(3,4-dihydroisoquinolin-2(1H)-yl)-2-hydroxypropyl)-7-(pyridazin-4-ylamino)-3,4-dihydropyrido[4,3-f][1,4]oxazepin-5(2H)-one] |
| 623 nM | CC(=O)N1CCC(Nc2cnc3c(c2)C(=O)N(CC(O)CN2CCc4ccccc4C2)CC3)CC1 (stereo not drawn) [Compound 19, 3-((1-acetylpiperidin-4-yl)amino)-6-(3-(3,4-dihydroisoquinolin-2(1H)-yl)-2-hydroxypropyl)-7,8-dihydro-1,6-naphthyridin-5(6H)-one] |
| 19 nM | CC(=O)N1CCC(Nc2ccc3c(c2)C(=O)N(C[C@@H](O)CN2CCc4ccccc4C2)CC3)CC1 [Compound 24b, (S)-7-((1-acetylpiperidin-4-yl)amino)-2-(3-(3,4-dihydroisoquinolin-2(1H)-yl)-2-hydroxypropyl)-3,4-dihydroisoquinolin-1(2H)-one] |
| 138 nM | CC(=O)N1CC2(CC(Nc3ccc4c(c3)C(=O)N(CC(O)CN3CCc5ccccc5C3)CCO4)C2)C1 (stereo not drawn) [Compound 54, 7-((2-acetyl-2-azaspiro[3.3]heptan-6-yl)amino)-4-(3-(3,4-dihydroisoquinolin-2(1H)-yl)-2-hydroxypropyl)-3,4-dihydrobenzo[f][1,4]oxazepin-5(2H)-one] |
